The first assay deals with T1, Lp-PLA2 in human plasma (Homo sapiens, UniProt Q13093).
T1 construct: from tissue; host or cells: pooled human plasma
T1 sequence (Q13093 22-441): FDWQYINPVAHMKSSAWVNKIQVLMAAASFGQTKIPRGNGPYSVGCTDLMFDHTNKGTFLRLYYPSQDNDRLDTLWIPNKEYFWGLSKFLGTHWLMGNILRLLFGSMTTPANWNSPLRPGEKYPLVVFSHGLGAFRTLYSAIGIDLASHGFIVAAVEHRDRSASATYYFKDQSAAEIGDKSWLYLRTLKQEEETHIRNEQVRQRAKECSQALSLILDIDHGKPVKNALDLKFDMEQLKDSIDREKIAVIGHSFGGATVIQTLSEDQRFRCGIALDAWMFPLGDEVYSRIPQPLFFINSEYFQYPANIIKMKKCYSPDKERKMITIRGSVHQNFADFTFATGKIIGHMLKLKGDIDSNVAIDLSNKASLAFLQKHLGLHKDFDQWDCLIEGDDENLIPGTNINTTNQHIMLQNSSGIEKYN
The assay can be described thus: (3a) Lp-PLA2 human plasma Thio-PAF assay. It is filed as biochemical. The conditions noted are these: (3a) Thio-PAF assay, pooled human plasma; Examples 1-265 and 413-430 were tested here; read-out: pIC50 in the Lp-PLA2 human plasma assay (converted). In short, it runs like this: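 Pooled human plasma preincubated 30 min with serially diluted compound, then given 2-thio-PAF substrate with CPM and NEM in 50 mM HEPES pH 7.4, 150 mM NaCl, 1 mM CHAPS. Reaction quenched with TFA after 2 min; CPM thiol-adduct fluorescence read at ex 380/em 485 after 40 min; pIC50 reported.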
On to `O=c1nc(OCc2cccc(F)c2)cc2n1C[C@H]1CCCN21` [Example E102, (R)-3-((3-fluorobenzyl)oxy)-7,8,8a,9-tetrahydropyrrolo[1′,2′:3,4]imidazo[1,2-c]pyrimidin-1(6H)-one], for which the IC50 is at most 10 µM.

A further assay deals with T2, recombinant human Lp-PLA2 (Homo sapiens, UniProt Q13093).
T2 sequence (Q13093 22-441): T1 sequence (Q13093 22-441)
The assay can be described thus: (1b) hrThioPAF assay, recombinant human Lp-PLA2. The class given is biochemical. The conditions noted are these: Examples 266-412 were tested here, one experiment or average of multiple experiments, read-out: rhLp-PLA2 (pIC50) (converted). From the text:
1-O-Hexadecyl-2-deoxy-2-thio-S-acetyl-sn-glyceryl-3-phosphorylcholine (2-thio-PAF) is a substrate for PAF-hydrolases (PAF-AH) commercially available from Cayman Chemical. Upon cleavage with PAF-AH, the free thiol is released at the sn-2 position and can then react with 7-diethylamino-3-(4′-maleimidylphenyl)-4-methylcoumarin (CPM) a thiol-reactive coumarin. This reaction (Michael addition) results in an increase in fluorescence. Inhibitors of Lp-PLA2 therefore prevent this cleavage and no fluorescent increase is observed.
The Thio-PAF assay was run as an unquenched 20 μL assay. The source plate containing the compounds to be tested was prepared by making 1:3 (by volume) serial dilution of the compounds within DMSO on 384-well microplate. Then, 5 μL of the compounds on compound source plate were transferred into 384 well Greiner 784076 (black) plates using STAR+(Hamilton) liquid dispenser. 10 μL of recombinant human Lp-PLA2 enzyme (20 pM rhLp-PLA2 in assay buffer of 50 mM HEPES, pH 7.4, 150 mM NaCl, 1 mM CHAPS) was added to each well of the plate. 5 μL of substrate comprising 40 μM 2-thio-PAF [from ethanol stock], 40 μM CPM [from a DMSO stock] and 400 μM NEM (N-ethylmaleimide) [made fresh daily in DMSO] in assay buffer (50 mM HEPES, pH 7.4, 150 mM NaCl, 1 mM CHAPS) was added to 384 well Greiner 784076 black plates. Plates were vortexed for 10 sec. The plate was covered to protect it from light and incubated for 20 min at 25° C. The plates were read for fluorescence intensity at ex: 380 nm/em: 485 nm using Envision plate reader (Perkin Elmer). Raw data were transferred to Excel software and pIC50 data, curve and QC analysis was conducted by using XL fit module in Excel.
Turning to `O=c1nc(NCc2ccc(F)c(F)c2)cc2n1CC1CSCCN21` (stereo not drawn) [Example E374, 7-((3,4-Difluorobenzyl)amino)-3,4,11,11a-tetrahydropyrimido[6′,1′:2,3]imidazo[5,1-c][1,4]thiazin-9(1H)-one], the IC50 was at most 10 µM.

For `N#Cc1cc(COc2ccc(COc3cc4n(c(=O)n3)CC3CNC(=O)CN43)cc2C#N)ccc1F` (stereo not drawn) [Example E350, 5-((2-cyano-4-(((3,9-dioxo-2,3,4,9,11,11a-hexahydro-1H-pyrazino[1′,2′:3,4]imidazo[1,2-c]pyrimidin-7-yl)oxy)methyl)phenoxy)methyl)-2-fluorobenzonitrile], the IC50 was at most 10 µM.

Take `CC(=O)N1CCN2c3cc(NCc4ccc(F)c(C#N)c4)nc(=O)n3CC2C1` (stereo not drawn) [Example E314, 5-(((2-Acetyl-9-oxo-2,3,4,9,11,11a-hexahydro-1H-pyrazino[1′,2′:3,4]imidazo[1,2-c]pyrimidin-7-yl)amino)methyl)-2-fluorobenzonitrile]: the IC50 is at most 10 µM.

Regarding `O=c1nc(OCc2cccc(F)c2F)cc2n1CC1C[S+]([O-])CCN21` (stereo not drawn) [Example E362, 7-((2,3-Difluorobenzyl)oxy)-3,4,11,11a-tetrahydropyrimido[6′,1′:2,3]imidazo[5,1-c][1,4] thiazin-9(1H)-one 2-oxide], the IC50 was at most 10 µM.

For the molecule `O=c1nc(OCc2ccc(Cl)c(Br)c2)cc2n1CC1CNCCN21` (stereo not drawn) [Example E275, 7-((3-Bromo-4-chlorobenzyl)oxy)-3,4,11,11a-tetrahydro-1H-pyrazino[1′,2′:3,4] imidazo [1,2-c]pyrimidin-9(2H)-one], the IC50 was at most 10 µM.

On to `N#Cc1cc(COc2ccc(COc3cc4n(c(=O)n3)CC3CSCCN43)cc2C#N)ccc1F` (stereo not drawn) [Example E365, 5-((2-Cyano-4-(((9-oxo-1,3,4,9,11,11a-hexahydropyrimido[6′,1′:2,3]imidazo[5,1-c][1,4]thiazin-7-yl)oxy)methyl)phenoxy)methyl)-2-fluorobenzonitrile], for which the IC50 is at most 10 µM.

For the molecule `Cc1ccc(Oc2c(F)cc(COc3cc4n(c(=O)n3)C[C@@H]3C[C@H](O)CN43)cc2F)cn1` [Example E385, (7S,8aS)-3-((3,5-Difluoro-4-((6-methylpyridin-3-yl)oxy)benzyl)oxy)-7-hydroxy-7,8,8a,9-tetrahydropyrrolo[1′,2′:3,4]imidazo[1,2-c]pyrimidin-1(6H)-one], the IC50 was at most 10 µM.

As to `O=c1nc(NCc2cccc(F)c2F)cc2n1CC1CSCCN21` (stereo not drawn) [Example E377, 7-((2,3-Difluorobenzyl)amino)-3,4,11,11a-tetrahydropyrimido[6′,1′:2,3]imidazo[5,1-c][1,4]thiazin-9(1H)-one], the IC50 was at most 10 µM.

As for `COc1ccc(COc2cc3n(c(=O)n2)CC2CNCCN32)cc1C#N` (stereo not drawn) [Example E278, 2-Methoxy-5-(((9-oxo-2,3,4,9,11,11a-hexahydro-1H-pyrazino[1′,2′:3,4]imidazo [1,2-c]pyrimidin-7-yl)oxy)methyl) benzonitrile], the IC50 was at most 10 µM.

Regarding `CS(=O)(=O)N1CCN2c3cc(NCc4ccc(F)c(F)c4)nc(=O)n3CC2C1` (stereo not drawn) [Example E309, 7-((3,4-Difluorobenzyl)amino)-2-(methylsulfonyl)-3,4,11,11a-tetrahydro-1H-pyrazino[1′,2′:3,4]imidazo[1,2-c]pyrimidin-9(2H)-one], the IC50 is at most 10 µM.

For `O=c1nc(OCc2cccc(F)c2F)cc2n1CC1CSCCN21` (stereo not drawn) [Example E361, 7-((2,3-Difluorobenzyl)oxy)-3,4,11,11a-tetrahydropyrimido[6′,1′:2,3]imidazo[5,1-c][1,4] thiazin-9(1H)-one], the IC50 is at most 10 µM.

Regarding `Cc1ccc(COc2cc3n(c(=O)n2)CC2CNCCN32)cc1C#N` (stereo not drawn) [Example E271, 2-Methyl-5-(((9-oxo-2,3,4,9,11,11a-hexahydro-1H-pyrazino[1′,2′:3,4]imidazo [1,2-c]pyrimidin-7-yl)oxy)methyl) benzonitrile], the IC50 is at most 10 µM.

Consider `O=c1nc(OCc2cccc(F)c2F)cc2n1CC1CNCCN21` (stereo not drawn) [Example E268, 7-((2,3-Difluorobenzyl)oxy)-3,4,11,11a-tetrahydro-1H-pyrazino[1′,2′:3,4] imidazo [1,2-c]pyrimidin-9(2H)-one], for which the IC50 was at most 10 µM.

For the molecule `O=C1CN2c3cc(OCc4cccc(F)c4F)nc(=O)n3CC2CN1` (stereo not drawn) [Example E348, 7-((2,3-Difluorobenzyl)oxy)-11,11a-dihydro-1H-pyrazino[1′,2′:3,4]imidazo[1,2-c]pyrimidine-3,9(2H,4H)-dione], the IC50 was at most 10 µM.

Take `O=c1nc(OCc2cccc(F)c2F)cc2n1CC1CS(=O)(=O)CCN21` (stereo not drawn) [Example E363, 7-((2,3-Difluorobenzyl)oxy)-3,4,11,11a-tetrahydropyrimido[6′,1′:2,3]imidazo[5,1-c][1,4] thiazin-9(1H)-one 2,2-dioxide]: the IC50 was at most 10 µM.

`Cn1cc(Oc2c(F)cc(COc3cc4n(c(=O)n3)CC3(COC3)N4)cc2F)cn1` [Example E393]: the IC50 was at most 10 µM.

As for `N#Cc1cc(COc2cc3n(c(=O)n2)CC2CNCCN32)ccc1OC1CCCC1` (stereo not drawn) [Example E317, 2-(Cyclopentyloxy)-5-(((9-oxo-2,3,4,9,11,11a-hexahydro-1H-pyrazino[1,2′:3,4]imidazo[1,2-c]pyrimidin-7-yl)oxy)methyl)benzonitrile], the IC50 was at most 0.1 µM.

For the molecule `CCOC(=O)C(C)N1CCN2c3cc(OCc4ccc(F)c(F)c4)nc(=O)n3CC2C1` (single isomer, unassigned) [Example E326, Ethyl 2-(7-((3,4-difluorobenzyl)oxy)-9-oxo-3,4,11,11a-tetrahydro-1H-pyrazino[1′,2′:3,4]imidazo[1,2-c]pyrimidin-2(9H)-yl)propanoate], the IC50 was at most 10 µM.

For `N#Cc1cc(COc2cc3n(c(=O)n2)C[C@H]2CC(O)CN32)ccc1F` (stereo in doubt) [Example E381, 2-Fluoro-5-((((7R,8aR)-7-hydroxy-1-oxo-1,6,7,8,8a,9-hexahydropyrrolo[1′,2′:3,4]imidazo[1,2-c]pyrimidin-3-yl)oxy)methyl)benzonitrile], the IC50 is at most 10 µM.

`N#Cc1cc(COc2cc3n(c(=O)n2)CC2CNCCN32)ccc1OC1CCC1` (stereo not drawn) [Example E316, 2-Cyclobutoxy-5-(((9-oxo-2,3,4,9,11,11a-hexahydro-1H-pyrazino[1′,2′:3,4]imidazo[1,2-c]pyrimidin-7-yl)oxy)methyl)benzonitrile]: the IC50 was at most 10 µM.

Regarding `O=c1nc(OCc2ccc(F)c(F)c2)cc2n1CC1(CCN(S(=O)(=O)C3CC3)CC1)N2` [Example 410, 1′-(Cyclopropylsulfonyl)-7-((3,4-difluorobenzyl)oxy)-1H-spiro[imidazo[1,2-c]pyrimidine-2,4′-piperidin]-5(3H)-one], the IC50 was at most 0.001 µM.

With `N#Cc1cc(CCOc2cc3n(c(=O)n2)CC2(CCOCC2)N3)ccc1F` [Example 404, 2-Fluoro-5-(2-((5-oxo-2′,3,3′,5,5′,6′-hexahydro-1H-spiro[imidazo[1,2-c]pyrimidine-2,4′-pyran]-7-yl)oxy)ethyl)benzonitrile], the IC50 was at most 10 µM.

Another assay concerns the target T2, recombinant human Lp-PLA2. The assay can be described thus: (1a) PED6 assay, recombinant human Lp-PLA2 (rhLp-PLA2). It is filed as biochemical. The settings on record: Examples 1-167 and 413-430 were tested here, one experiment or average of multiple experiments, read-out: rhLp-PLA2 (pIC50) (converted). In short, it runs like this:
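PED6 (2 μM final after 1:1 addition of 4 μM stock) cleavage by rhLp-PLA2 (4 nM working solution) in 50 mM HEPES pH 7.4, 150 mM NaCl, 1 mM CHAPS; compounds preincubated with enzyme 30 minutes, reaction 20 min at room temperature. Fluorescence at ex 480/em 540; pIC50 from curve fit.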
`O=c1nc(OCc2cccc(F)c2)cc2n1C[C@H]1CCCN21` [Example E102, (R)-3-((3-fluorobenzyl)oxy)-7,8,8a,9-tetrahydropyrrolo[1′,2′:3,4]imidazo[1,2-c]pyrimidin-1(6H)-one]: the IC50 is at most 0.1 µM.
